Publication PMC12436592 (Nature Communications, 2025)
Where “and” joins values, the source holds several entries; their conditions need not be identical. Equal entries are not always repeated.

Columns and labels:
[1] = biological target: T1, mP2X7R (Mus musculus, UniProt Q9Z1M0); experiment: Calcium influx assay, 1321N1 astrocytoma cells, BzATP EC80; assay type: cell-based; details: for IC50: 1321N1 cells, BzATP EC80, mean ± SD
T1 construct: expressed in transfected cells
T1 sequence (Q9Z1M0 1-595): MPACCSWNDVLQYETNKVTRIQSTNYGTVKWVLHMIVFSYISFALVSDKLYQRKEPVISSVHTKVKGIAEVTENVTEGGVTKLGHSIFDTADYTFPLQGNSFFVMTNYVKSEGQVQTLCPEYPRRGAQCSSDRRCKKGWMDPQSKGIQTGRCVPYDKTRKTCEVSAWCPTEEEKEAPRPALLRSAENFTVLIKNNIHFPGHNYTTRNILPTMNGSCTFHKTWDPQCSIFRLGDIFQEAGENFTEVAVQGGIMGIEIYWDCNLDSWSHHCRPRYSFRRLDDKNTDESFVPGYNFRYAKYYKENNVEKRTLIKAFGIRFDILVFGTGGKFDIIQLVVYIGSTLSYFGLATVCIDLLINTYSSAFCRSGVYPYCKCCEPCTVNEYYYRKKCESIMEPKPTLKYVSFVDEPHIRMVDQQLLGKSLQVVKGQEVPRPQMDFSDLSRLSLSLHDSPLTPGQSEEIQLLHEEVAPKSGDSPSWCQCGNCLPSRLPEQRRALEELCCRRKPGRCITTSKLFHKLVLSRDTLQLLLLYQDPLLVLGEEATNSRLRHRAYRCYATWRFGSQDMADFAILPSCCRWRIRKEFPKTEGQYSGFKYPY
Source text: . For 1321N1 astrocytoma cells stably expressing the human, rat, or mouse P2X7Rs, or hP2X2Rs or hP2X4Rs, the fluorescent Ca^2+-chelating dye Fluo-4 acetoxymethyl ester (Fluo-4 AM, Thermo Fisher Scientific, Dreieich, Germany) was used. For 1321N1 astrocytoma cell lines recombinantly expressing the hP2X1Rs or hP2X3Rs, the FLIPR® Calcium 5 Assay Kit (Molecular Devices, San José, CA, USA) was employed. Human, rat, and mouse P2X7Rs as well as hP2X1Rs, hP2X2Rs, hP2X3Rs, and hP2X4Rs were recombinantly expressed in 1321N1 astrocytoma cells using a retroviral expression system[72]–[74].
(§1) On the first day, 45,000 cells per well (30,000 cells for the human P2X3 receptor-expressing cells) were seeded into a 96-well polystyrene microplate with a black, flat bottom in a final volume of 200 µL. After overnight incubation at 37 °C and 10% CO2 (5% CO2 for the human P2X3R-expressing cell line), the medium was removed by inverting the plate, and the cells were loaded with dye solution. Hanks’ balanced salt solution (HBSS, Thermo Fisher Scientific, Dreieich, Germany) was used as the assay buffer for human P2X1R, P2X2R, P2X3R, and P2X4R. For the P2X7Rs, a different assay buffer was used: 150 mM sodium-glutamate, 5 mM KCl, 0.5 mM CaCl2, 0.1 mM MgCl2, 10 mM D-glucose, 25 mM 4-(2-hydroxyethyl)-1-piperazineethanesulfonic acid (HEPES), pH 7.4. The dye solutions were freshly prepared. The Fluo-4 AM solution contained 3 µM of Fluo-4 AM in assay buffer and 1% of the non-ionic detergent Pluronic F-127® (Sigma-Aldrich, Taufkirchen, Germany). The Calcium 5 dye, used for hP2X1Rs and hP2X3Rs, was prepared in HBSS buffer. Cells were loaded with Fluo-4 AM and incubated for 1 h at room temperature with gentle shaking (100 rpm), while those loaded with the Calcium 5 dye were incubated for 1 h at 37 °C. After incubation, the dye solution was carefully removed from the plate, and buffer was added to the cells for the evaluation of agonists. […] The agonist solution was prepared in a 96-well transparent plate, obtaining the respective EC80 values. As a control, assay buffer without the test compound was used. After 30 min of incubation with antagonist, the plates were measured using a fluorescence imaging plate reader NOVOstar (BMG Labtech GmbH, Offenburg, Germany) at an excitation wavelength of 485 nm and an emission wavelength of 520 nm, for 30 s at 0.4 s intervals. Calcium influx measurements were then initiated by automatic addition of 20 µL of agonist solution by the plate reader’s pipetting device. Data were analyzed using Microsoft Excel and GraphPad Prism (Version 8.0, San Diego, CA, USA). EC80 and IC50 values were calculated using nonlinear regression with a sigmoidal dose-response equation.

[2] = biological target: T2, hP2X3R (Homo sapiens, UniProt P56373, S15V); experiment: Calcium influx assay, 1321N1 astrocytoma cells, ATP EC80; assay type: cell-based
T2 construct: expressed in transfected cells; host or cells: 1321N1 astrocytoma cells, retroviral expression system
T2 sequence (P56373 1-397 S15V): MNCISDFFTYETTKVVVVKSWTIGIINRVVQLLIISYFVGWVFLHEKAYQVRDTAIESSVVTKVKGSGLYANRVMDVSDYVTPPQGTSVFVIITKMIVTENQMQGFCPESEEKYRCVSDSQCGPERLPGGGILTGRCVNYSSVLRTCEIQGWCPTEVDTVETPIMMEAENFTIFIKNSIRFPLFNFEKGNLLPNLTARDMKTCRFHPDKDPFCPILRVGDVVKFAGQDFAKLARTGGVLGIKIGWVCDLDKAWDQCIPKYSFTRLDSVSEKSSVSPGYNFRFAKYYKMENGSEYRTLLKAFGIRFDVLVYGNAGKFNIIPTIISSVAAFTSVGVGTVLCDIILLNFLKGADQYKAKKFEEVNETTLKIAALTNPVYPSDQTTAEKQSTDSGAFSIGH
Source text: For 1321N1 astrocytoma cells stably expressing the human, rat, or mouse P2X7Rs, or hP2X2Rs or hP2X4Rs, the fluorescent Ca^2+-chelating dye Fluo-4 acetoxymethyl ester (Fluo-4 AM, Thermo Fisher Scientific, Dreieich, Germany) was used. For 1321N1 astrocytoma cell lines recombinantly expressing the hP2X1Rs or hP2X3Rs, the FLIPR® Calcium 5 Assay Kit (Molecular Devices, San José, CA, USA) was employed. Human, rat, and mouse P2X7Rs as well as hP2X1Rs, hP2X2Rs, hP2X3Rs, and hP2X4Rs were recombinantly expressed in 1321N1 astrocytoma cells using a retroviral expression system[72]–[74].
as §1

Structure (SMILES)	activity at 0.003 µM ([1]; 1321-N1, Log(c) M -8.52288, read-out: normalized calcium signal, mP2X7R IC50 curve) [%]	IC50 [1] [nM]	normalized calcium signal, mP2X7R IC50 curve ([1]; Log(c) M -7, 0.1 µM)	normalized calcium signal, mP2X7R IC50 curve ([1]; Log(c) M -7.52288, 0.03 µM)	normalized calcium signal, mP2X7R IC50 curve ([1]; Log(c) M -8, 0.01 µM)	normalized calcium signal, mP2X7R IC50 curve ([1]; Log(c) M -8.52288, 0.003 µM)	inhibition at 10 µM ([2]; 1321-N1, read-out: % inhibition ± SD at 10 μM, hP2X3R, 10 μM antagonist, ATP 100 nM) [%]	hP2X3R inhibition at 10 μM ([2]; Log(c) M -5, single values, 10 µM, in % (unit assumed))	hP2X3R inhibition, IC50 curve ([2]; Log(c) M -6, in %)	fold more potent at the hP2X7R versus the hP2X3R ([2]; calcium influx IC50 ratio) [fold]	IC50 ([2]; calcium influx, estimated) [nM]	normalized calcium signal, mP2X7R IC50 curve ([1]; Log(c) M -9, 0.001 µM)	normalized calcium signal, mP2X7R IC50 curve ([1]; Log(c) M -9.52288, 0.0003 µM)	times more potent than UB-ALT-P30 on the mP2X7R ([1]; calcium influx)
O=C(NNc1ccccc1Cl)C12CC3CC(CC(C3)C1)C2 [UB-ALT-P30, reference compound]	101	148 ± 27	58.6062 and 69.2329 and 80.2999 and 70.4572 and 91.3507 and 85.9323 and 94.1322	92.3415 and 79.1265 and 114.599 and 132.12 and 97.8989 and 119.546	92.8335 and 100.155 and 89.6254 and 122.632 and 113.342 and 120.308	96.3012 and 101.363	86 ± 9	94.9053 and 93.1871 and 60.8032 and 85.3564 and 91.979 and 90.698 and 90.7697 and 79.3438	58.8384 and 67.0023 and 59.1901 and 77.3652	40	707 ± 185	–	–	–
CC12CC3CC1(C)C1(C)CC3(C(=O)NNc3ccccc3Cl)CC21C [UB-MBX-46]	–	4.52 ± 0.72	–	–	–	72.2751 and 83.0134 and 65.4518 and 88.1956 and 92.7904 and 87.7744 and 76.3105 and 64.8252	–	–	–	–	–	110.597 and 115.455 and 88.4 and 102.046 and 107.58 and 103.403 and 110.382	115.86 and 127.811 and 92.8545 and 89.4511 and 104.887 and 106.902 and 87.8281 and 105.571	~ 33 x
